Legend:
[1] = Pharmacokinetics in healthy volunteers; settings: human, in vivo
LA skinned muscle fibers = assay: Myocardial force generation, LA skinned muscle fibers (tension-pCa, stiffness); assay type: biochemical, Yucatan mini-pig; settings: at 3 μM
Protocol: The ability of Compound I to increase myocardial force generation at a given Ca2+ concentration was evaluated using LA (n=6) and LV (n=6) skinned muscle fibers prepared from three different Yucatan mini-pig hearts. In short, as previously described, 3 hearts were harvested, rinsed and shipped in cold cardioplegia solution (Custodiol® HTK; Essential Pharmaceuticals, LLC, NC, USA). Upon receipt, LV (papillary) and LA muscle fibers were dissected at 4° C. in a high-relaxing solution (100 mM BES, 10 mM EGTA, 6.57 mM MgCl2, 10 mM creatine phosphate, 6.22 mM ATP, 41.89 mM Kprop, 2.5 μM pepstatin, 1 μM leupeptin, 50 μM PMSF, 5 mM NaN3, pH 7.0). Fiber bundles were cut and skinned (in a high-relaxing solution containing 1% Triton X-100), fitted with aluminum foil t-clips, and mounted on a mechanics apparatus (Aurora Scientific Inc., ON, Canada). Sarcomere length was set to 2.0 μm. Steady-state isometric tension and stiffness (via a 3% stretch over 250 ms) were measured at increasing concentrations of Ca^2+ (pCa 8.0 to 4.5, adjusted to maintain 180 mM ionic strength) twice, first in the absence (control, 1% DMSO) and then in the presence of Compound I (3 μM, 1% DMSO). […] Active and passive stiffness were calculated by measuring the slope of the early (Ca^2+ dependent) and late phases, respectively, of the tension response to the brief 3% stretches. […]

[2] = tested on: LV (papillary) skinned muscle fibers; assay: Myocardial force generation, LV skinned muscle fibers (tension-pCa, stiffness); assay type: biochemical, Yucatan mini-pig; settings: at 3 μM
Protocol: The ability of Compound I to increase myocardial force generation at a given Ca2+ concentration was evaluated using LA (n=6) and LV (n=6) skinned muscle fibers prepared from three different Yucatan mini-pig hearts. In short, as previously described, 3 hearts were harvested, rinsed and shipped in cold cardioplegia solution (Custodiol® HTK; Essential Pharmaceuticals, LLC, NC, USA). Upon receipt, LV (papillary) and LA muscle fibers were dissected at 4° C. in a high-relaxing solution (100 mM BES, 10 mM EGTA, 6.57 mM MgCl2, 10 mM creatine phosphate, 6.22 mM ATP, 41.89 mM Kprop, 2.5 μM pepstatin, 1 μM leupeptin, 50 μM PMSF, 5 mM NaN3, pH 7.0). Fiber bundles were cut and skinned (in a high-relaxing solution containing 1% Triton X-100), fitted with aluminum foil t-clips, and mounted on a mechanics apparatus (Aurora Scientific Inc., ON, Canada). Sarcomere length was set to 2.0 μm. Steady-state isometric tension and stiffness (via a 3% stretch over 250 ms) were measured at increasing concentrations of Ca^2+ (pCa 8.0 to 4.5, adjusted to maintain 180 mM ionic strength) twice, first in the absence (control, 1% DMSO) and then in the presence of Compound I (3 μM, 1% DMSO). In all cases, tension values were normalized to the control maximum isometric tension (at pCa 4.5). Active and passive stiffness were calculated by measuring the slope of the early (Ca^2+ dependent) and late phases, respectively, of the tension response to the brief 3% stretches. Data are presented as means (SD) in text or as mean±SEM in figures; EC50 values (and 95% CIs) were calculated using a four-parameter-fit model (GraphPad Prism, GraphPad Software Inc., CA, USA).

[3] = tested on: dogs with microembolization-induced heart failure; assay: Echocardiography/haemodynamics in dogs with microembolization-induced heart failure; assay type: in vivo, beagle dogs; settings: 2-3 mg/kg orally, 5 hours post-treatment
Description: Seven male beagle dogs underwent a modified serial coronary microembolization protocol to produce chronic LV dysfunction and HF (Geist et al., J Pharmacol Toxicol Methods (2019) 99:106595), as determined by both LV remodeling and decreases in LV ejection fraction (LVEF). A subset of animals (n=5) were also surgically implanted with a radio-telemetry transmitter (TL11M3-D70-PCTP; Data Sciences Int., MN, USA) to provide systemic arterial blood and LV pressures. The microembolization and instrumentation techniques employed have been previously validated (Hartman et al., JACC Basic Transl Sci. (2018) 3(5):625-38).
The effects of Compound I (at 2-3 mg/kg oral tablet; n=14) on LV/LA function and geometry, as well as systemic/ventricular haemodynamics, were examined by echocardiography in conscious, lightly sedated animals (butorphanol 0.25-0.5 mg/kg intravenous) before dosing (i.e., baseline) as well at 5 hours post-treatment.
In these experiments, 2D and 2D-guided M-mode echocardiographic (CX50; Philips Medical System, MA, USA) recordings of LV dimension, LA dimension (LAd) and aortic dimension (Aod), as well as LV volume estimates (Simpson's and Teichholz's methods), were obtained at end-systole/diastole in both short-axis (papillary-level) and/or apical/parasternal long-axis views. From these measurements, LV stroke volume (LVSV), cardiac output (CO), LV fractional shortening (LVFS), LV fractional area of shortening and LVEF, as well as the LAd/Aod ratio, were calculated. LV outflow tract (LVOT) blood velocity (via Doppler) was measured and the LVOT velocity−time integral (LVOT−VTI) calculated. In addition, maximal (end-systolic, LAmax) and minimal (end-diastolic, LAmin) LA volumes were measured using the bi-plane method; both LA emptying fraction (LAEF=100×[LAmax−LAmin]/LAmax) and LA functional index (LAFI=[LAEF×LVOT−VTI]/LAmax index) were calculated (Thomas et al., Eur J Echocardiogr (2008) 9(3):356-362). Diastolic trans-mitral peak flow velocities (E and A), mitral-annulus tissue velocities (e′, s′ and a′), and their ratios during early filling (E/e′), were recorded/used as indices of diastolic performance. In all cases, atrial and ventricular indexed volumes were calculated by normalizing to the estimated body surface area (0.101×[body weight in kg][…]), while reported data were derived by averaging at least three cardiac cycles. Finally, haemodynamic signals were digitally acquired (1000 Hz) and recorded continuously with a data acquisition/analysis system (IOX; EMKA Technologies). Heart rate (HR) and end-systolic and end-diastolic pressures, as well as the peak rates of pressure rise and decline (dP/dtmax and dP/dtmin, respectively), the contractility index (dP/dt/P at dP/dtmax), and the time constant of myocardial relaxation (tau1/2, time for 50% decay from dP/dtmin) were derived from the LV pressure signal. Systolic, diastolic and mean systemic blood pressures, as well as pulse pressures, were derived from the aortic pressure signal. Haemodynamic data were reported as the average over at least 1 minute (at steady state). In vivo data are presented as means (SD) in the text or as mean±SEM in the figures; mean differences between pre- and post-treatment values were evaluated via a two-tailed paired t-test with a significance level of 0.05 set a priori (GraphPad Prism, GraphPad Software Inc., CA, USA).

## Cn1cc(S(=O)(=O)[C@@](C)(F)C2CCN(C(=O)Nc3ccon3)CC2)c(C(F)F)n1 [Compound I, (R)-4-(1-((3-(difluoromethyl)-1-methyl-1H-pyrazol-4-yl)sulfonyl)-1-fluoroethyl)-N-(isoxazol-3-yl)piperidine-1-carboxamide]
[1]
  Tmax: 4 to 6 h
  half-life: ~15 h
LA skinned muscle fibers
  passive stiffness, atrial skinned fibers: without altering passive stiffness
LA skinned muscle fibers; data not shown
  maximal force-generation capability, atrial skinned fibers: without altering
[2]
  passive stiffness, ventricular skinned fibers: without altering passive stiffness
[2]; pCa 6.0
  increase in LV tension: 43%
[2]; data not shown
  maximal force-generation capability, ventricular skinned fibers: without altering
[3]; SD ±0.2, baseline 3.4 (±0.2), p<0.05
  LVESD: 3.2 cm
[3]; SD ±0.3, baseline 1.6 (±0.2)
  E/A: 1.6
[3]; SD ±0.3, baseline 4.3 (±0.2)
  LVEDD: 4.3 cm
[3]; SD ±1.1, baseline 7.4 (±1.0)
  e′ (mitral annular velocity): 7.3 cm/s
[3]; SD ±1.3, baseline 4.0 (±1.2), p<0.05
  a′ (late peak mitral annular velocity): 5.4 cm/s
[3]; SD ±1.6, baseline 3.4 (±0.9), p<0.05
  CO (cardiac output, estimated): 4.1 L/min
[3]; SD ±3.6, baseline 19.6 (±2.7), p<0.05
  LVFS: 25.6%
[3]; SD ±4.4, baseline −13.5 (±4.4), p<0.05
  LVGCS (LV global circumferential strain): −17.3%
[3]; SD ±6, baseline 41 (±5), p<0.05
  LVEF: 51%
[3]; SD ±6.5, baseline 7.7 (±3.3), p<0.05
  LAFI (left atrial functional index): 15.2
[3]; SD ±6.9, baseline 20.4 (±4.4), p<0.05
  LAEF (left atrial emptying fraction): 31.1%
[3]; SD ±8, baseline 41 (±6)
  A (late peak wave velocity, mitral inflow): 46 cm/s
[3]; SD ±9.0, baseline 21.2 (±8.3), p<0.05
  LAmin Vol. index (LAminVi): 17.9 mL/m^2
[3]; SD ±9.7, baseline 26.7 (±9.7), p<0.05
  LAmax Vol. index: 25.1 mL/m^2
[3]; SD ±13, baseline 66 (±10)
  DBP (diastolic blood pressure): 72 mmHg
[3]; SD ±40, baseline 71 (±12)
  E (early trans-mitral peak wave velocity): 74 cm/s
[3]; baseline 178 (±24), p<0.05
  SET (systolic ejection time): 200 ms
[3]; mean, SD ±10.7, baseline 33.0 (±5.9), p<0.05
  LVSV (left ventricular stroke volume): 43.6 mL
[3]; n/u, SD ±1.2, baseline 9.7 (±1.9)
  E/e′: 10.2
[3]; telemetry subset, SD ±4, baseline 18 (±2)
  LVEDP (LV end-diastolic pressure): 16 mmHg
[3]; telemetry subset, SD ±10, baseline 110 (±10)
  SBP (systolic blood pressure): 119 mmHg
[3]; telemetry subset, SD ±50, baseline 108 (±45), p<0.05
  HR (heart rate): 99 bpm

From patent US20230233545A1, “TREATMENT OF ATRIAL DYSFUNCTION” (MyoKardia, Inc., priority 2020, published 2023)
